Test system: LG0703-F948-PDC complex spheroid viability
Assay: Anticancer human tumor LG0703-F948-PDC patient-derived lung adenocarcinoma cell line growth inhibition [RAS]
Conditions: for IC50: curve of first compound; for viability, T/C: stronger effect = lower value
How it was run: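 Tumour cells grown as complex spheroids with HUVEC endothelial cells and mesenchymal stem cells, treated with RAS pathway inhibitor combinations. Each agent spans half-log steps from near clinical Cmax, or 10 microM where Cmax is unknown.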

[1] = second compound 0.000949 µM, first compound 0.00316 µM
[2] = second compound 0.000949 µM, first compound 0.01 µM
[3] = second compound 0.000949 µM, first compound 0.0316 µM
[4] = second compound 0.000949 µM, first compound 0.1 µM
[5] = second compound 0.000949 µM, first compound 0.316 µM
[6] = second compound 0.000949 µM, first compound 1 µM
[7] = second compound 0.003 µM, first compound 0.00316 µM
[8] = second compound 0.003 µM, first compound 0.01 µM
[9] = second compound 0.003 µM, first compound 0.0316 µM
[10] = second compound 0.003 µM, first compound 0.1 µM
[11] = second compound 0.003 µM, first compound 0.316 µM
[12] = second compound 0.003 µM, first compound 1 µM
[13] = second compound 0.00949 µM, first compound 0.00316 µM
[14] = second compound 0.00949 µM, first compound 0.01 µM
[15] = second compound 0.00949 µM, first compound 0.0316 µM
[16] = second compound 0.00949 µM, first compound 0.1 µM
[17] = second compound 0.00949 µM, first compound 0.316 µM
[18] = second compound 0.00949 µM, first compound 1 µM
[19] = second compound 0.03 µM, first compound 0.00316 µM
[20] = second compound 0.03 µM, first compound 0.01 µM
[21] = second compound 0.03 µM, first compound 0.0316 µM
[22] = second compound 0.03 µM, first compound 0.1 µM
[23] = second compound 0.03 µM, first compound 0.316 µM
[24] = second compound 0.03 µM, first compound 1 µM
[25] = second compound 0.0949 µM, first compound 0.00316 µM
[26] = second compound 0.0949 µM, first compound 0.01 µM
[27] = second compound 0.0949 µM, first compound 0.0316 µM
[28] = second compound 0.0949 µM, first compound 0.1 µM
[29] = second compound 0.0949 µM, first compound 0.316 µM
[30] = second compound 0.0949 µM, first compound 1 µM
[31] = second compound 0.3 µM, first compound 0.00316 µM
[32] = second compound 0.3 µM, first compound 0.01 µM
[33] = second compound 0.3 µM, first compound 0.0316 µM
[34] = second compound 0.3 µM, first compound 0.1 µM
[35] = second compound 0.3 µM, first compound 0.316 µM
[36] = second compound 0.3 µM, first compound 1 µM
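Also: spheroids exposed to agents for 7 days.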
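For viability, T/C in this document: 100% = DMSO vehicle wells.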

C=CC(=O)N1CCN(c2nc(OCC3CCCN3C)nc3c(F)c(-c4nc(N)cc(C)c4C(F)(F)F)c(Cl)cc23)C(C)C1 (centres undefined) + CCn1c(-c2cc(N3CCN(C)CC3)cnc2C(C)OC)c2c3cc(ccc31)-c1csc(n1)CC(NC(=O)C1CC1C)C(=O)N1CCCC(N1)C(=O)OCC(C)(C)C2
IC50 (second compound 0.000949 µM): > 1000 nM
IC50 (second compound 0.003 µM): < 3.16 nM
IC50 (second compound 0.00949 µM): < 3.16 nM
IC50 (second compound 0.03 µM): < 3.16 nM
IC50 (second compound 0.0949 µM): < 3.16 nM
IC50 (second compound 0.3 µM): < 3.16 nM
viability, T/C [1]: 68%
viability, T/C [2]: 75.1%
viability, T/C [3]: 71%
viability, T/C [4]: 66.5%
viability, T/C [5]: 69.9%
viability, T/C [6]: 62.6%
viability, T/C [7]: 45.5%
viability, T/C [8]: 40.5%
viability, T/C [9]: 43.4%
viability, T/C [10]: 44%
viability, T/C [11]: 47.3%
viability, T/C [12]: 49%
viability, T/C [13]: 24.9%
viability, T/C [14]: 26.1%
viability, T/C [15]: 27.9%
viability, T/C [16]: 17.7%
viability, T/C [17]: 25.9%
viability, T/C [18]: 25.5%
viability, T/C [19]: 13.4%
viability, T/C [20]: 14.6%
viability, T/C [21]: 16.2%
viability, T/C [22]: 13.1%
viability, T/C [23]: 18.8%
viability, T/C [24]: 13.9%
viability, T/C [25]: 14.2%
viability, T/C [26]: 16.3%
viability, T/C [27]: 11.3%
viability, T/C [28]: 11%
viability, T/C [29]: 15.2%
viability, T/C [30]: 15.9%
viability, T/C [31]: 10.4%
viability, T/C [32]: 8.07%
viability, T/C [33]: 9.51%
viability, T/C [34]: 11.9%
viability, T/C [35]: 11.5%
viability, T/C [36]: 10.8%

C=CC(=O)Nc1cc(Nc2nccc(-c3cn(C)c4ccccc34)n2)c(OC)cc1N(C)CCN(C)C + CCn1c(-c2cc(N3CCN(C)CC3)cnc2C(C)OC)c2c3cc(ccc31)-c1csc(n1)CC(NC(=O)C1CC1C)C(=O)N1CCCC(N1)C(=O)OCC(C)(C)C2
IC50 (second compound 0.000949 µM): 5.17 nM
IC50 (second compound 0.003 µM): < 3.16 nM
IC50 (second compound 0.00949 µM): < 3.16 nM
IC50 (second compound 0.03 µM): < 3.16 nM
IC50 (second compound 0.0949 µM): < 3.16 nM
IC50 (second compound 0.3 µM): < 3.16 nM
viability, T/C [1]: 62.6%
viability, T/C [2]: 33%
viability, T/C [3]: 17.7%
viability, T/C [4]: 12.9%
viability, T/C [5]: 11.6%
viability, T/C [6]: 9.33%
viability, T/C [7]: 30.5%
viability, T/C [8]: 18.5%
viability, T/C [9]: 12.6%
viability, T/C [10]: 10.9%
viability, T/C [11]: 12.3%
viability, T/C [12]: 8.1%
viability, T/C [13]: 24%
viability, T/C [14]: 14.2%
viability, T/C [15]: 12.6%
viability, T/C [16]: 9.67%
viability, T/C [17]: 8.83%
viability, T/C [18]: 9.91%
viability, T/C [19]: 14.1%
viability, T/C [20]: 13.1%
viability, T/C [21]: 8.75%
viability, T/C [22]: 7.03%
viability, T/C [23]: 6.1%
viability, T/C [24]: 4.67%
viability, T/C [25]: 9.07%
viability, T/C [26]: 7.77%
viability, T/C [27]: 5.22%
viability, T/C [28]: 5.15%
viability, T/C [29]: 5.21%
viability, T/C [30]: 3.75%
viability, T/C [31]: 7.47%
viability, T/C [32]: 9.59%
viability, T/C [33]: 5.92%
viability, T/C [34]: 5.32%
viability, T/C [35]: 4.11%
viability, T/C [36]: 2.62%

Reference: PubChem BioAssay AID2060890 (Molecular Pharmacology Branch, DTP, NCI, 2025)
